From patent publication US10040781B2, “Tank-binding kinase inhibitor compounds” (Gilead Sciences, Inc., priority 2014, dated 2018)

Columns and labels:
IKKε = IKKε (Homo sapiens (Human), UniProt Q14164); assay: IKKε TR-FRET enzymatic assay; type: biochemical; settings: read-out: IKKe IC50
TBK1 = TBK1 (Homo sapiens (Human), UniProt Q9UHD2); assay: TBK1 TR-FRET enzymatic assay;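 also: phosphorylation of a biotinylated Ser/Thr peptide by purified full-length recombinant TBK1, read by TR-FRET after 240 min at 25 °C, IC50 is the geometric mean of at least four runs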
hJAK2 = hJAK2 (Homo sapiens (Human), UniProt O60674); assay: hJAK2 LANCE TR-FRET enzymatic assay; type: biochemical; settings: read-out: JAK2 IC50
hJAK2, sequence (O60674 whole entry): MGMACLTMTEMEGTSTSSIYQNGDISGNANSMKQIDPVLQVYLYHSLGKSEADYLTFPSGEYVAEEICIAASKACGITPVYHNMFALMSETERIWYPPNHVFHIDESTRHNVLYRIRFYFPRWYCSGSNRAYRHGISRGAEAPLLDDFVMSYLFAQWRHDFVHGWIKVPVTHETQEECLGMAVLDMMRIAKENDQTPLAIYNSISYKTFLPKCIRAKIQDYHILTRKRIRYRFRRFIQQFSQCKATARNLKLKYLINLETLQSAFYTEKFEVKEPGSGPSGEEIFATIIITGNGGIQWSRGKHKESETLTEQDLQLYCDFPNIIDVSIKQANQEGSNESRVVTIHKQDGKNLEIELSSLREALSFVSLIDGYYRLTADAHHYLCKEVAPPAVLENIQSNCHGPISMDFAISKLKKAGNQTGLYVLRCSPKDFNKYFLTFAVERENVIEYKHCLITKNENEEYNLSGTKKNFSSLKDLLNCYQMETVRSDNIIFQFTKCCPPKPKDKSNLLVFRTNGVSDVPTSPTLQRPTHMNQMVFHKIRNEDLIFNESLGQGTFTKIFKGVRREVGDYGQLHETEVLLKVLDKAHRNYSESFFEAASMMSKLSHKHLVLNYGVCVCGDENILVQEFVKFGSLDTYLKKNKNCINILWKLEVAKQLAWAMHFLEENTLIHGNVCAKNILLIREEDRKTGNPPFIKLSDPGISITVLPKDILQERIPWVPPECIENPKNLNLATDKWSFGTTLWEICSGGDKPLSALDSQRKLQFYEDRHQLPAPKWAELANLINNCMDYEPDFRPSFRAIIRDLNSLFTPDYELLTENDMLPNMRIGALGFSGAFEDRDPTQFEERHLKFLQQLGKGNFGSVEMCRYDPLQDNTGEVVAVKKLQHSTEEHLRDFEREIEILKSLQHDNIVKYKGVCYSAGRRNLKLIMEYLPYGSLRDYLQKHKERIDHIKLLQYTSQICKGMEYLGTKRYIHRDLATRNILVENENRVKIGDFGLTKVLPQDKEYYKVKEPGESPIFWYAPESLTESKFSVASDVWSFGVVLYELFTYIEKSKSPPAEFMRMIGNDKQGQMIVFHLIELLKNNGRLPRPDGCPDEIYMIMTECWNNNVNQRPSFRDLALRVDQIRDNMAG

TBK1, sequence (Q9UHD2 whole entry): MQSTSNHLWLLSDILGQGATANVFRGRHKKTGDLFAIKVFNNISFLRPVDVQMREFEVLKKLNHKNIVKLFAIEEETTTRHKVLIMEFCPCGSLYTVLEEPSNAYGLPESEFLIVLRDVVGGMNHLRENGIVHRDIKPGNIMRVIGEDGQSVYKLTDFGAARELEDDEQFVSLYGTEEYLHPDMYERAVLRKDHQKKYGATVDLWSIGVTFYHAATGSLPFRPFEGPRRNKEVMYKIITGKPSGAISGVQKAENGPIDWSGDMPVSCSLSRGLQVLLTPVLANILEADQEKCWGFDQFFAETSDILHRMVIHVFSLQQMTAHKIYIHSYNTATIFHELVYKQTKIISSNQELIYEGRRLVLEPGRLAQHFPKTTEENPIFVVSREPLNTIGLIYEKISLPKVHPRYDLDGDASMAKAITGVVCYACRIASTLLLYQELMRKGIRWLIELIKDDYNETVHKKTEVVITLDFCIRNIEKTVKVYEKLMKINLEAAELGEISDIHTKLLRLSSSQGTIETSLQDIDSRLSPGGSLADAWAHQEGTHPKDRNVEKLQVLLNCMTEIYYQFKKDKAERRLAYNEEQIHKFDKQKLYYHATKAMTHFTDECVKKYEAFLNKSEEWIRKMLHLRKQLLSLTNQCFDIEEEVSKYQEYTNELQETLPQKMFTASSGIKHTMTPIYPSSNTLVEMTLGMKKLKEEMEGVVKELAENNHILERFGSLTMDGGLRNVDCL
IKKε, sequence (Q14164 whole entry): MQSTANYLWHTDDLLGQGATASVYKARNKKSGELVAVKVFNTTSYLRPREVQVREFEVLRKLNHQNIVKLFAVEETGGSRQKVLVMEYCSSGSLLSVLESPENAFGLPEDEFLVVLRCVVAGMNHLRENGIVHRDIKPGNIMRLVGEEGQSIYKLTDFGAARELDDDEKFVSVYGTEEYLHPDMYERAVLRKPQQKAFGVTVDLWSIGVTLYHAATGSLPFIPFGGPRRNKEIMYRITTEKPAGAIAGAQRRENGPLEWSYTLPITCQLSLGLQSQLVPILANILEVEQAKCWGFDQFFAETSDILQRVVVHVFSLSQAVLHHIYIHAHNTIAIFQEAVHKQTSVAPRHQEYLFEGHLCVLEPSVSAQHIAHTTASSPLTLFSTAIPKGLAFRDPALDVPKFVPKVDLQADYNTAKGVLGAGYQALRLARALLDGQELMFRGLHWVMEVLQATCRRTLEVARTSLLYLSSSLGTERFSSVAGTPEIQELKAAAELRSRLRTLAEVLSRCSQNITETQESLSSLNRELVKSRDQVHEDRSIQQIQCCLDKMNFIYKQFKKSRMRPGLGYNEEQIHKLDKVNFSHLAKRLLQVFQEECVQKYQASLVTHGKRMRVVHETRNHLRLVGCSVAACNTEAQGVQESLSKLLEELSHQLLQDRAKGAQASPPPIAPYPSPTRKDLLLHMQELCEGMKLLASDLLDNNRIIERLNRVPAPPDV

`N#Cc1cc(-c2ncnc(Nc3ccc(N4CCN(C5COC5)CC4)cc3)n2)ccc1O[C@H]1CCN(C(=O)[C@@H]2COC(=O)N2)C[C@H]1F` [Example 333, 2-(((3R,4S)-3-fluoro-1-((S)-2-oxooxazolidine-4-carbonyl)piperidin-4-yl)oxy)-5-(4-((4-(4-(oxetan-3-yl)piperazin-1-yl)phenyl)amino)-1,3,5-triazin-2-yl)benzonitrile] was tested. Which IC50 (IKKε) did it give?
Its IC50 is 3 nM.

And the IC50 (TBK1)?
The IC50 was 2 nM.

And the IC50 (hJAK2)?
Its IC50 is 233 nM.

What does the source list for `N#Cc1cc(-c2ncnc(Nc3ccc(N4CCN(C5COC5)CC4)cc3)n2)ccc1O[C@H]1CCN(C(=O)c2nc(N)n[nH]2)C[C@H]1F` [Example 334, 2-(((3R,4S)-1-(3-amino-1H-1,2,4-triazole-5-carbonyl)-3-fluoropiperidin-4-yl)oxy)-5-(4-((4-(4-(oxetan-3-yl)piperazin-1-yl)phenyl)amino)-1,3,5-triazin-2-yl)benzonitrile]?
IC50 (IKKε): 2 nM; IC50 (TBK1): 16 nM; IC50 (hJAK2): 80 nM

Which results are given for `CC(=O)N[C@@H](C)C(=O)N1CC[C@H](Oc2ccc(-c3ncnc(Nc4ccc(N5CCN(C6COC6)CC5)cc4)n3)cc2C#N)[C@H](F)C1` [Example 335, N—((S)-1-((3R,4S)-4-(2-cyano-4-(4-((4-(4-(oxetan-3-yl)piperazin-1-yl)phenyl)amino)-1,3,5-triazin-2-yl)phenoxy)-3-fluoropiperidin-1-yl)-1-oxopropan-2-yl)acetamide]?
IC50 (IKKε): 834 nM; IC50 (TBK1): 508 nM; IC50 (hJAK2): 478 nM

For `N#Cc1cc(-c2ncnc(Nc3ccc(N4CCN(C5COC5)CC4)cc3)n2)ccc1O[C@H]1CCN(C(=O)c2ccncn2)C[C@H]1F` [Example 337, 2-(((3R,4S)-3-fluoro-1-(pyrimidine-4-carbonyl)piperidin-4-yl)oxy)-5-(4-((4-(4-(oxetan-3-yl)piperazin-1-yl)phenyl)amino)-1,3,5-triazin-2-yl)benzonitrile], which IC50 (IKKε) is on record?
Its IC50 is 7 nM.

What about the IC50 (TBK1) of the same compound?
The IC50 was 4 nM.

What about the IC50 (hJAK2) of the same compound?
Its IC50 is 572 nM.

For `N#Cc1cc(-c2ncnc(Nc3ccc(N4CCN(C5COC5)CC4)cc3)n2)ccc1O[C@H]1CCN(C(=O)c2ccnnc2)C[C@H]1F` [Example 338, 2-(((3R,4S)-3-fluoro-1-(pyridazine-4-carbonyl)piperidin-4-yl)oxy)-5-(4-((4-(4-(oxetan-3-yl)piperazin-1-yl)phenyl)amino)-1,3,5-triazin-2-yl)benzonitrile], which IC50 (IKKε) is on record?
The IC50 was 18 nM.

What about the IC50 (TBK1) of the same compound?
The IC50 was 9 nM.

What about the IC50 (hJAK2) of the same compound?
The IC50 was 131 nM.

With `N#Cc1cc(-c2ncnc(Nc3ccc(N4CCN(C5COC5)CC4)cc3)n2)ccc1O[C@H]1CCN(C(=O)c2nccnc2N)C[C@H]1F` [Example 339, 2-(((3R,4S)-1-(3-aminopyrazine-2-carbonyl)-3-fluoropiperidin-4-yl)oxy)-5-(4-((4-(4-(oxetan-3-yl)piperazin-1-yl)phenyl)amino)-1,3,5-triazin-2-yl)benzonitrile] as the compound, how does the IC50 (IKKε) read?
The IC50 was 58 nM.

And the IC50 (TBK1)?
The IC50 was 14 nM.

And the IC50 (hJAK2)?
Its IC50 is 54 nM.

Which results are given for `N#Cc1cc(-c2ncnc(Nc3ccc(N4CCN(C5COC5)CC4)cc3)n2)ccc1O[C@H]1CCN(C(=O)c2cncc(N)n2)C[C@H]1F` [Example 340, 2-(((3R,4S)-1-(6-aminopyrazine-2-carbonyl)-3-fluoropiperidin-4-yl)oxy)-5-(4-((4-(4-(oxetan-3-yl)piperazin-1-yl)phenyl)amino)-1,3,5-triazin-2-yl)benzonitrile]?
IC50 (IKKε): 9 nM; IC50 (TBK1): 4 nM; IC50 (hJAK2): 122 nM

For `C[C@H](O)C(=O)N1CC[C@H](Oc2ccc(-c3ncnc(Nc4ccc(N5CC(C)(O)C5)cc4)n3)cc2C#N)[C@H](F)C1` [Example 342, 2-(((3R,4S)-3-fluoro-1-((S)-2-hydroxypropanoyl)piperidin-4-yl)oxy)-5-(4-((4-(3-hydroxy-3-methylazetidin-1-yl)phenyl)amino)-1,3,5-triazin-2-yl)benzonitrile], which IC50 (IKKε) is on record?
The IC50 was 1 nM.

And the IC50 (TBK1)?
The IC50 was 2 nM.

What about the IC50 (hJAK2) of the same compound?
The IC50 was 496 nM.

`Cn1ncc2ccc(Nc3ncnc(-c4ccc(O[C@H]5CCN(C(=O)CO)C[C@H]5F)c(C#N)c4)n3)cc21` [Example 343, 2-(((3R,4S)-3-fluoro-1-(2-hydroxyacetyl)piperidin-4-yl)oxy)-5-(4-((1-methyl-1H-indazol-6-yl)amino)-1,3,5-triazin-2-yl)benzonitrile] was tested. Which IC50 (IKKε) did it give?
Its IC50 is 2 nM.

And the IC50 (TBK1)?
The IC50 was 4 nM.

And the IC50 (hJAK2)?
Its IC50 is 258 nM.

Which results are given for `C[C@H](O)C(=O)N1CC[C@H](Oc2ccc(-c3ncnc(Nc4ccc5cnn(C)c5c4)n3)cc2C#N)[C@H](F)C1` [Example 344, 2-(((3R,4S)-3-fluoro-1-((S)-2-hydroxypropanoyl)piperidin-4-yl)oxy)-5-(4-((1-methyl-1H-indazol-6-yl)amino)-1,3,5-triazin-2-yl)benzonitrile]?
IC50 (IKKε): 5 nM; IC50 (TBK1): 7 nM; IC50 (hJAK2): 707 nM

What does the source list for `Cc1nn(C)c2cc(Nc3ncnc(-c4ccc(O[C@H]5CCN(C(=O)CO)C[C@H]5F)c(C#N)c4)n3)ccc12` [Example 346, 5-(4-((1,3-dimethyl-1H-indazol-6-yl)amino)-1,3,5-triazin-2-yl)-2-(((3R,4S)-3-fluoro-1-(2-hydroxyacetyl)piperidin-4-yl)oxy)benzonitrile]?
IC50 (IKKε): 1 nM; IC50 (TBK1): 3 nM; IC50 (hJAK2): 511 nM

Which results are given for `Cc1nn(C)c2cc(Nc3ncnc(-c4ccc(O[C@H]5CCN(C(=O)[C@H](C)O)C[C@H]5F)c(C#N)c4)n3)ccc12` [Example 347, 5-(4-((1,3-dimethyl-1H-indazol-6-yl)amino)-1,3,5-triazin-2-yl)-2-(((3R,4S)-3-fluoro-1-((S)-2-hydroxypropanoyl)piperidin-4-yl)oxy)benzonitrile]?
IC50 (IKKε): 5 nM; IC50 (TBK1): 4 nM; IC50 (hJAK2): ≥ 1000 nM

How did the IC50 (IKKε) turn out when `N#Cc1cc(-c2ncnc(Nc3ccc(N4CCN(C5COC5)CC4)cc3)n2)ccc1O[C@H]1CCN(C(=O)C(O)CO)C[C@H]1F` (stereo partly drawn) [Example 348, 2-(((3R,4S)-1-(2,3-dihydroxypropanoyl)-3-fluoropiperidin-4-yl)oxy)-5-(4-((4-(4-(oxetan-3-yl)piperazin-1-yl)phenyl)amino)-1,3,5-triazin-2-yl)benzonitrile] was run?
Its IC50 is 3 nM.

And the IC50 (TBK1)?
Its IC50 is 4 nM.

And the IC50 (hJAK2)?
The IC50 was 162 nM.

What does the source list for `CC(C)n1cc(Nc2ncnc(-c3ccc(O[C@H]4CCN(C(=O)CO)C[C@H]4F)c(C#N)c3)n2)cn1` [Example 349, 2-(((3R,4S)-3-fluoro-1-(2-hydroxyacetyl)piperidin-4-yl)oxy)-5-(4-((1-isopropyl-1H-pyrazol-4-yl)amino)-1,3,5-triazin-2-yl)benzonitrile]?
IC50 (IKKε): 2 nM; IC50 (TBK1): 2 nM; IC50 (hJAK2): 98 nM

Which IC50 (IKKε) does the source give for `CC(C)n1cc(Nc2ncnc(-c3ccc(O[C@H]4CCN(C(=O)[C@H](C)O)C[C@H]4F)c(C#N)c3)n2)cn1` [Example 350, 2-(((3R,4S)-3-fluoro-1-((S)-2-hydroxypropanoyl)piperidin-4-yl)oxy)-5-(4-((1-isopropyl-1H-pyrazol-4-yl)amino)-1,3,5-triazin-2-yl)benzonitrile] here?
Its IC50 is 5 nM.

What about the IC50 (TBK1) of the same compound?
The IC50 was 3 nM.

What about the IC50 (hJAK2) of the same compound?
Its IC50 is 231 nM.

For `CCn1cc(Nc2ncnc(-c3ccc(O[C@H]4CCN(C(=O)[C@H](C)O)C[C@H]4F)c(C#N)c3)n2)cn1` [Example 351, 5-(4-((1-ethyl-1H-pyrazol-4-yl)amino)-1,3,5-triazin-2-yl)-2-(((3R,4S)-3-fluoro-1-((S)-2-hydroxypropanoyl)piperidin-4-yl)oxy)benzonitrile], which IC50 (IKKε) is on record?
Its IC50 is 9 nM.

And the IC50 (TBK1)?
The IC50 was 6 nM.

What about the IC50 (hJAK2) of the same compound?
The IC50 was 662 nM.

How did the IC50 (IKKε) turn out when `C[C@H](O)C(=O)N1CC[C@H](Oc2ccc(-c3ncnc(Nc4cnn(CC(F)F)c4)n3)cc2C#N)[C@H](F)C1` [Example 352, 5-(4-((1-(2,2-difluoroethyl)-1H-pyrazol-4-yl)amino)-1,3,5-triazin-2-yl)-2-(((3R,4S)-3-fluoro-1-((S)-2-hydroxypropanoyl)piperidin-4-yl)oxy)benzonitrile] was run?
The IC50 was 4 nM.

What about the IC50 (TBK1) of the same compound?
The IC50 was 4 nM.

And the IC50 (hJAK2)?
The IC50 was no less than 1000 nM.

Which IC50 (IKKε) does the source give for `C[C@H](O)C(=O)N1CC[C@H](Oc2ccc(-c3ncnc(Nc4cnn(C5COC5)c4)n3)cc2C#N)[C@H](F)C1` [Example 353, 2-(((3R,4S)-3-fluoro-1-((S)-2-hydroxypropanoyl)piperidin-4-yl)oxy)-5-(4-((1-(oxetan-3-yl)-1H-pyrazol-4-yl)amino)-1,3,5-triazin-2-yl)benzonitrile] here?
Its IC50 is 10 nM.

What about the IC50 (TBK1) of the same compound?
The IC50 was 7 nM.

What about the IC50 (hJAK2) of the same compound?
The IC50 was 944 nM.

What does the source list for `C[C@H](O)C(=O)N1CC[C@H](Oc2ccc(-c3ncnc(Nc4cnn(C5CCOCC5)c4)n3)cc2C#N)[C@H](F)C1` [Example 354, 2-(((3R,4S)-3-fluoro-1-((S)-2-hydroxypropanoyl)piperidin-4-yl)oxy)-5-(4-((1-(tetrahydro-2H-pyran-4-yl)-1H-pyrazol-4-yl)amino)-1,3,5-triazin-2-yl)benzonitrile]?
IC50 (IKKε): 5 nM; IC50 (TBK1): 6 nM; IC50 (hJAK2): 309 nM

What does the source list for `N#Cc1cc(-c2ncnc(Nc3ccc(N4CCN(C5COC5)CC4)cc3)n2)ccc1O[C@H]1CCN(C(=O)c2cn[nH]c2)C[C@H]1F` [Example 356, 2-(((3R,4S)-3-fluoro-1-(1H-pyrazole-4-carbonyl)piperidin-4-yl)oxy)-5-(4-((4-(4-(oxetan-3-yl)piperazin-1-yl)phenyl)amino)-1,3,5-triazin-2-yl)benzonitrile]?
IC50 (IKKε): 3 nM; IC50 (TBK1): 2 nM; IC50 (hJAK2): 550 nM

With `C[C@H](O)C(=O)N1CC[C@H](Oc2ccc(-c3ncnc(Nc4ccc(N5CCC[C@@H](O)C5)cc4)n3)cc2C#N)[C@H](F)C1` [Example 357, 2-(((3R,4S)-3-fluoro-1-((S)-2-hydroxypropanoyl)piperidin-4-yl)oxy)-5-(4-((4-((R)-3-hydroxypiperidin-1-yl)phenyl)amino)-1,3,5-triazin-2-yl)benzonitrile] as the compound, how does the IC50 (IKKε) read?
Its IC50 is 2 nM.

What about the IC50 (TBK1) of the same compound?
Its IC50 is 4 nM.

What about the IC50 (hJAK2) of the same compound?
The IC50 was 511 nM.

`C[C@H](O)C(=O)N1CC[C@H](Oc2ccc(-c3ncnc(Nc4cnc(N5CCN(C6COC6)CC5)c(F)c4)n3)cc2C#N)[C@H](F)C1` [Example 358, 2-(((3R,4S)-3-fluoro-1-((S)-2-hydroxypropanoyl)piperidin-4-yl)oxy)-5-(4-((5-fluoro-6-(4-(oxetan-3-yl)piperazin-1-yl)pyridin-3-yl)amino)-1,3,5-triazin-2-yl)benzonitrile] was tested. Which IC50 (IKKε) did it give?
Its IC50 is 11 nM.

And the IC50 (TBK1)?
Its IC50 is 6 nM.

What about the IC50 (hJAK2) of the same compound?
Its IC50 is no less than 1000 nM.
